From US20240270732A1, “RECEPTOR-INTERACTING PROTEIN INHIBITOR, PREPARATION METHOD THEREFOR, AND USE THEREOF” (CHENGDU BIOBEL BIOTECHNOLOGY CO., LTD, priority 2021, published 2024) come the findings set out here.

The structures appear in SMILES notation. pIC50: −log10 of the molar value.

Assay [1] relates to human colon cancer cells HT-29. Description: Inhibition of necrosis of HT-29 cells induced by TNF-α (CellTiter-Glo). The conditions noted are these: Homo sapiens, HT-29; TNF-α 100 ng/ml + AT-406 1 μM + z-VAD-FMK 20 μM, 24 h. It is filed as cell-based. As for the experimental part: (§1) After the cells were incubated in a 5% CO2 incubator at 37° C. for 24 h, the test compound of the present invention and the control compound were diluted to the corresponding pre-determined concentration using the medium, and added to the 384-well plate at 5 μL/well. […] Then, 30 μL of CellTiter-Glo luminescent solution was added to each well, and shaken for 2 min. After standing at room temperature for 10 min, the absorbance was measured using ELISA. […] A is the group without necrosis-inducing agents, and B is the group with necrosis-inducing agents. […] A is the group without necrosis-inducing agents, B is the group with necrosis-inducing agents, and X is the group with compounds and necrosis-inducing agents.

The subject of another assay is U937 cells. Description: Inhibition of necrosis of U937 cells induced by TNF-α (CellTiter-Glo). It is filed as cell-based. As to conditions: Homo sapiens, U-937; TNF-α 100 ng/ml + AT-406 1 μM + z-VAD-FMK 20 μM, 24 h. The procedure:
After the cells were incubated in a 5% CO2 incubator at 37° C. for 24 h, the test compound of the present invention and the control compound were diluted to the corresponding pre-determined concentration using the medium, and added to the 384-well plate at 5 μL/well. […] Then, 30 μL of CellTiter-Glo luminescent solution was added to each well, and shaken for 2 min. After standing at room temperature for 10 min, the absorbance was measured using an enzyme-linked immunosorbent assay (ELISA). […] A is the group without necrosis-inducing agents, and B is the group with necrosis-inducing agents.
Background: ATP-based viability assays read luminescence as a measure of living cells.

The test system of the next assay is HacaT cells. Description: Inhibition of necrosis of HacaT cells induced by TNF-α (CellTiter-Glo). It is filed as cell-based. As to conditions: Homo sapiens, TNF-α 100 ng/ml + AT-406 1 μM + z-VAD-FMK 20 μM, 24 h. The procedure:
[…] (purchased from ATCC) in logarithmic growth phase were collected and resuspended in 1640 medium, and then the cell concentration was adjusted to 20 cells/μL, to obtain cell suspension, which was seeded in 384-well plate, with 20 μL cell suspension for each well. After the cells were cultured in a 5% CO2 incubator at 37° C. for 24 h, the test compound of the present invention and the control compound were diluted to the corresponding pre-determined concentration using the medium, and added to the 384-well plate at 5 µL/well. […] Then, 30 μL of CellTiter-Glo luminescent solution was added to each well, and shaken for 2 min. After standing at room temperature for 10 min, the absorbance was measured using ELISA. […] A is the group without necrosis-inducing agents, and B is the group with necrosis-inducing agents.

A further assay has as its target human RIP1 kinase (Homo sapiens (Human), UniProt Q13546). The assay is described as follows: Inhibitory activity on RIP1 kinase (ADP-Glo). Type of assay: biochemical. As to conditions: human RIP kinase 25 nM. As for the experimental part: The compound of the present invention and the control compound were dissolved in the assay buffer (50 mM Hepes pH 7.5, 50 mM NaCl, 30 mM MgCl2, 1 mM DTT, 0.02% CHAPS, 0.5 mg/mL BSA), and diluted in a ratio of 1:1.5 using a 22-point titration (high concentration 2 μM), and then added to a 384-well plate. […] After completion of the reaction, 5 μL of ADP-Glo reagent containing 0.02% CHAPS was added to each well and incubated at room temperature for 1 h to terminate the kinase reaction and use up all remaining ATP. Then, 5 μL of ADP-Glo detection solution containing 0.02% CHAPS was added to each well and incubated at room temperature for 30 min to measure the emittance intensity. For each ATP concentration, the activity data was obtained by the emittance intensity minus the control intensity.
For orientation: ADP-Glo first removes unused ATP, then detects ADP through luciferase.

Assay [2] deals with human pancreatic cancer cells PANC-1. The assay is described as follows: Inhibition of necrosis of PANC-1 cells induced by TNF-α (CellTiter-Glo). The conditions noted are these: Homo sapiens, PANC-1; TNF-α 100 ng/ml + AT-406 1 μM + z-VAD-FMK 20 μM, 24 h. Type of assay: cell-based. As for the experimental part:
as §1

human RIP1 kinase, sequence (Q13546 whole entry): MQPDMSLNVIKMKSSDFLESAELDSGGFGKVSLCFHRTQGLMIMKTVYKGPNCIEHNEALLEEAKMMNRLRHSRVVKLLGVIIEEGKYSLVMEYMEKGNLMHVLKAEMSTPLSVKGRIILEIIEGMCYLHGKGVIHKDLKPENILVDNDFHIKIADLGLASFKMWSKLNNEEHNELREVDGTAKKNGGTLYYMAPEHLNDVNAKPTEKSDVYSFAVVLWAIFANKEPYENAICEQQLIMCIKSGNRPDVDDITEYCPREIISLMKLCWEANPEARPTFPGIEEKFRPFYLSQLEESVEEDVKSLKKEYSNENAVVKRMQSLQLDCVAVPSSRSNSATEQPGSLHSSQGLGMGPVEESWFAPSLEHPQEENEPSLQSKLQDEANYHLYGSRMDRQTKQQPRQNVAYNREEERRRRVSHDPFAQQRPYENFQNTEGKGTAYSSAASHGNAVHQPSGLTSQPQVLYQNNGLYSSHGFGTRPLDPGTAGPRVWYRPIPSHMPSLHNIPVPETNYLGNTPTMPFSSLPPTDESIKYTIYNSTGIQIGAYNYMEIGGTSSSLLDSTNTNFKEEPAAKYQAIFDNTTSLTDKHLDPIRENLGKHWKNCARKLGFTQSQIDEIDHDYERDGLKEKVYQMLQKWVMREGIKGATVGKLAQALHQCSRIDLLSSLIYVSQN

Turning to `CN1C(=O)[C@@H](NC(=O)c2ncn(Cc3ccccc3)n2)COc2ccc(C#CCN3CCN(CC#Cc4ccc5c(c4)N(C)C(=O)[C@@H](NC(=O)c4ncn(Cc6ccccc6)n4)CO5)CC3)cc21` [Compound I-30], the pIC50 (as a rule, the negative decadic logarithm of the IC50, by convention in mol/L) in assay [1] was 7.78; in the assay with U937 cells it was 8.31; with HacaT cells it was 8.39; on human RIP1 kinase it was 8.58; in assay [2], 7.80.
